Assay results from patent publication US20120220581A1, “IMIDAZO[1,2-b]PYRIDAZINE DERIVATIVES AND THEIR USE AS PDE10 INHIBITORS” (Janssen-Cilag, S.A., priority 2009, published 2012).

Columns and labels:
PDE1B1 = PDE1B1 (Homo sapiens, UniProt Q01064); experiment: In vitro PDE selectivity assay (SPA), PDE1B1; type: biochemical; settings: hPDE1B1; read-out: PDE 1B1 (expressed as pIC50) (converted)
[1] = test system: female hooded-Lister rats; experiment: Object recognition test (NOR) after sub-chronic PCP; type: in vivo, rat; settings: for LMA (no. of lines crossed): mean
Description: 60 female hooded-Lister rats (Charles River, UK) were used as subjects for these studies and weighed 248 g±20 g. Rats were allowed at least a 7-day acclimatization period to the animal unit prior to commencement of experimentation. Rats were housed in groups of 5 under standard laboratory conditions under a 12 h light:dark cycle, lights on at 0700 h. All testing was carried out in the light phase. Food and water were freely provided. All experiments were conducted in accordance with the Animals Scientific Procedures Act, U.K. 1986 and were approved by the University of Bradford ethical review panel.
40 mg of test compound was dissolved in 5 ml of 40% hydroxypropyl β-cyclodextrin (HPBC) solution. The solution was sonicated until completely dissolved. 2 ml of sterile water was added and the pH measured and adjusted with NaOH solution (0.1N) to obtain pH ˜4. Finally, sterile water was added to a final volume of 10 ml. This stock solution was then diluted in 20% HPBC to obtain the final concentrations. 100 mg of PQ10 was dissolved in a 40% HPBC solution and 8 mg of tartaric acid. The solution was sonicated until completely dissolved. 5 ml of sterile water was added and the pH measured and adjusted with NaOH solution (0.1N) to obtain pH ˜4. Finally sterile water was added to a final volume of 10 ml.
Test compound was administered at doses of 0.3 and 1.0 mg/kg via the oral route 30 min prior to testing.
PQ10 was administered at a dose of 1.0 mg/kg via the oral route 30 min prior to testing.
Certain pre-clinical tests allow the observation of relatively subtle cognitive deficits in the rat that resemble cognitive symptoms in subjects with schizophrenia. The cognitive deficits observed are seen in behaviours such as episodic memory, which can be measured by recognition tasks such as the novel object recognition (NOR) paradigm. A recognition memory task allows the comparison between presented stimuli and previously stored information. Ennaceur, A Delacour, J (1988) A new one-trial test for neurobiological studies of memory in rats Behav Brain Res 31: 47-59 described the NOR test in rats which was based on the differential exploration of familiar and new objects. The NOR test is a non-rewarded, ethologically relevant paradigm based on the spontaneous exploratory behaviour of rats that measures episodic memory. Each session consists of two trials. In the first trial, the rats are exposed to two identical objects in an open field. During the second trial, rats are exposed to two dissimilar objects, one familiar object from the first trial and one new object. Object recognition in rats can be measured as the difference in time spent exploring the familiar and the new object. […] The duration of each trial is also important as a preference for the novel object only lasts during the first 1 or 2 minutes, after which time preference diminishes as both objects become familiar and are explored equally.
Rats were randomly assigned to the 8 treatment groups
Rats were allowed to habituate to the empty test box and the behavioural test room environment for 1 h on day 1. Prior to behavioural testing on day 2 rats were given a further 3 min habituation.
Following the 3 min habituation period, the rats were given two 3 min trials (T1 and T2) which were separated by a 1 min inter-trial interval in the home cage during which the objects were changed.
In this trial, the animals were allowed to explore two identical objects (A1 and A2) for 3 min.
In this trial, the animals explored a familiar object (A) from T1 and a novel object (B) for 3 min. The familiar object presented during T2 was a duplicate of the object presented in T1 in order to avoid any olfactory trails.
The object exploration was defined by animals licking, sniffing or touching the object with the forepaws whilst sniffing, but not leaning against, turning around, standing or sitting on the object. […]

Sequence of PDE1B1 (Q01064 whole entry, species assumed): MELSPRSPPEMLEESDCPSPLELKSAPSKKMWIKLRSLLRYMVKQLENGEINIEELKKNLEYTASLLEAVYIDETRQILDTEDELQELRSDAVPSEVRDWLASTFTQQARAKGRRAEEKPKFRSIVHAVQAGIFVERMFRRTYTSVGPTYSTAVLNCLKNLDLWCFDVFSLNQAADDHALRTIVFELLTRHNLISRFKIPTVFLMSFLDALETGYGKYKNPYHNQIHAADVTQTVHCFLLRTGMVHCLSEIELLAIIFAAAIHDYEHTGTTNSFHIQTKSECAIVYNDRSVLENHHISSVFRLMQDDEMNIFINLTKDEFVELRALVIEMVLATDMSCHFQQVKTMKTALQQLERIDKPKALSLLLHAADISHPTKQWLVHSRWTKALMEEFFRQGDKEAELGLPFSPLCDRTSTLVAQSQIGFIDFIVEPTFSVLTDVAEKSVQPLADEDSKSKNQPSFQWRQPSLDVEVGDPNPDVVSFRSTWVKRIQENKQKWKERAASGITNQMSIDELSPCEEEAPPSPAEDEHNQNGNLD

## COCCc1ccc(-c2c(C)nc3c(N4CCOCC4)ccnn23)cn1 [compound 1, 3-[6-(2-methoxyethyl)-3-pyridinyl]-2-methyl-8-(4-morpholinyl)-imidazo[1,2-b]pyridazine]
PDE1B1
  IC50: 5.25 µM
[1]; PCP + 0.3 mg/kg p.o.
  LMA (no. of lines crossed): 56.5 no. of lines crossed
[1]; PCP + 1 mg/kg p.o.
  LMA (no. of lines crossed): 56.4 no. of lines crossed
[1]; acute treatment, oral route 30 min prior to testing, compound 1 0.3-1.0 mg/kg, PQ10 1.0 mg/kg, sub-chronic PCP female rats
  effects of acute treatment in the NOR task: selective for the retention phase
